In patent US20020028809A1 (SUNTORY LIMITED, priority 1999, published 2002):

How the values were obtained:
[1] = target: T1, α1β1γδ subtype of nicotinic acetylcholine receptors (Rattus norvegicus, UniProt P18916+P25108+P25109+P25110); test: Binding assays at α1β1γδ subtype of nicotinic acetylcholine receptors ([3H]-α-bungarotoxin, rat muscle extract); conditions: for remaining activity at 100 µM / remaining activity at 1000 µM: read-out: control % of [3H]-α-Bgt binding
T1 construct: Native receptor, no construct: "Triton X100 (2% w/v) was added
Description: (§1) Methods for evaluating binding capabilities of the compounds at nicotinic acetylcholine receptors are different by subtypes of receptors. Binding capabilities of the compounds at α4β2 nicotinic acetylcholine receptors are examined using rat brain membrane obtained from whole homogenized brain, and determining the inhibiting rate of the compounds against [^3H]-cytisine binding to said brain membrane. Furthermore, the binding capabilities of the compounds at α1β1γδ nicotinic acetylcholine receptors are examined using homogenized rat muscle, and determining the inhibiting rate of the compounds against [^3H]-α-bungarotoxin binding to said muscle homogenate.
Binding Assays at α1β1γδ Subtype of Nicotinic Acetylcholine Receptors
Affinity of the compounds of the present invention to α1βγδ subtype of nicotinic acetylcholine receptors was measured by the following method, which was modified method described by Garcha H. S., Thomas P., Spivak C.
(1) Preparation of Rat Skeletal Muscles Containing α1β1γδ Subtype of Nicotinic Acetylcholine Receptors
The substantially same animals described in the Biological Experiment 1 were used.
Isolation of α1β1γδ subtype of nicotinic acetylcholine receptors was performed as follow. That is, rat posterior skeletal muscles were isolated just after sacrificed by decapitation, washed with ice-cooled saline solution and then frozen at −80° C. with liquid nitrogen and stored till using. After thawing the frozen muscles, tissue was homogenized (40% w/v) with buffer solution [2.5 mM of sodium phosphate buffer (pH:7.2), 90 mM of NaCl, 2 mM of KCl, 1 mM of EDTA, 2 mM of benzamidine, 0.1 mM of benzethonium chloride, […], 0.01% of sodium azide] in Waring blender (Waring blender 34BL97; WARING PRODUCTS DIVISION DYNAMICS CORPORATION OF AMERICA) for 60 seconds. The homogenate were centrifuged under 20,000×G for 60 minutes at 4° C. The supernatant was separated and the resulting pellet was added to the same buffer (1.5 ml/g wet weight), and homogenized under the same conditions. Triton X100 (2% w/v) was added and the mixture was stirred for 3 hours at 4° C. The centrifugation at 100,000×G for 60 minutes at 4° C. yielded the rat muscle extract as supernatant. This was stored at 4° C. for up to 4 weeks, and used for binding assays at receptors.
(2) Experiments of α1β1γδSubtype of Nicotinic Acetylcholine Receptors Binding
Receptors binding experiments were performed as follow. That is, the extract of rat muscle containing 600-900 μg of protein was added to test tubes containing test compounds and incubated for 15 minutes at 37° C. Then, to this mixture was added 1 nM of [^3H]-α-bungarotoxin (α-Bgt) and further incubated for 2 hours. The samples were isolated by vacuum filtration onto Whatman GF/B filters, which were prerinsed with 0.5% polyethylenimine just prior to sample filtration, using Brandel multi manifold cell harvester. The filters were rapidly rinsed with washing solution (10 mM of KH2PO4, 150 mM of NaCl, pH 7.2, room temperature) (5×1 ml). The filters were counted in 3 ml of clearsol I (Nacalai Tesque Inc.). Determination of nonspecific binding was incubated in the presence of 1 μM α-Bgt.
In the receptor binding experiments, said buffer solution was added for adjusting the final concentration of BSA to be 0.05%.
Analyses of the experimental results were conducted by the same way as described in the Biological Experiment 1.

[2] = target: T2, α4β2 subtype of nicotinic acetylcholine receptors (Rattus norvegicus, UniProt P09483+P12390); test: Binding assays at α4β2 subtype of nicotinic acetylcholine receptors ([3H]-cytisine, rat brain membrane)
T2 construct: examined using rat brain membrane obtained from whole homogenized brain; from tissue; host or cells: whole brain of Fischer-344 male rats, membrane pellet
Description: as §1
Binding assays at α4β2 Subtype of Nicotinic Acetylcholine Receptors
(1) Preparation of Rat Brain Membrane Containing α4β2 Subtype of Nicotinic Acetylcholine Receptors
Rats were housed in the breeding cage controlled of the room temperature at 23±1° C., and the humidity of 55±5% for 1 to 4 weeks. Rats (3 to 4 rats per a cage) were housed with lights on for 12 hours daily (from 7:00 to 19:00), and allowed free access to food and water.
Preparation of rat brain membrane containing α4β2 subtype of nicotinic acetylcholine receptors was performed as follow. That is, rat brains were isolated just after sacrificed by decapitation, washed with ice-cooled saline solution and then frozen at −80° C. with liquid nitrogen and stored till using. After thawing the frozen brain, the brain was homogenized in 10 volumes of ice-cooled buffer solution (50 mM of Tris-HCl, 120 mM of NaCl, 5 mM of KCl, 1 mM of MgCl2, 2mM of CaCl2; pH 7.4; 4° C.) using homogenizer (HG30, Hitachi Kohki Ltd.) for 30 seconds, and the homogenate were centrifuged under 1,000×G for 10 minutes at 4° C. The resulting supernatant was separated and the pellet was homogenized again with half volume of aforementioned prior buffer solution and centrifuged under the same conditions. Combined supernatant was further centrifuged under 40,000×G for 20 minutes at 4° C. The pellet was suspended in buffer solution and used for binding assays at receptors.
(2) Experiments of α4β2 Subtype of Nicotinic Acetylcholine Receptors Binding
Suspensions of membrane pellets containing 400-600 μg of protein were added to test tubes containing test compounds and [^3H]-cytisine (2 nM) in a final volume of 200 μl and incubated for 75 minutes in ice-cooled bath. The samples were isolated by vacuum filtration onto Whatman GF/B filters, which were prerinsed with 0.5% polyethylenimine just prior to sample filtration, using Brandel multi manifold cell harvester. The filters were rapidly washed with buffer solution (3×1 ml). The filters were counted in 3 ml of clearsol I (Nacalai Tesque Inc.).
Analyses of the experimental results were conducted using the Accufit Competition Program (Beckman Ltd.).

[3] = target: T3, human α4β2 subtype of nicotinic acetylcholine receptors (Homo sapiens, UniProt P17787+P43681); test: Agonist activities at human α4β2 subtype of nicotinic acetylcholine receptors expressed in Xenopus oocytes (membrane potential holding method); type: cell-based; conditions: for Emax at 100 µM: read-out: Agonist activity: control % by response at 100 μM of the test compound
T3 construct: expressed in transfected cells; host or cells: Xenopus laevis oocytes injected with 50 ng each of α4 and β2 cRNA (pSP64 polyA vector)
Description: Agonist effect in human α4β2 subtype of nicotinic acetylcholine receptors are examined by using human nicotinic acetylcholine receptors prepared in oocytes of Xenopus laevis, which is injected with cRNA from the corresponding cloning cDNA of human α4 and β2 subunits of nicotinic acetylcholine receptors, and to measure the expression of electric response by adding the test compounds to perfusion solution by means of membrane potential holding method.
Agonist Activities at Human α4β2 Subtype of Nicotinic Acetylcholine Receptors
(1) Preparation of cRNA of Human α4β2 Subtype of Nicotinic Acetylcholine Receptors
Obtained hnACh-R α4 cDNA and hnACh-R β2 cDNA were inserted to the cRNA expression vector (pSP64 polyA) having SP6 RNA promoter to construct hnACh-R α4/pSP64 polyA and hnACh-R β2/pSP64 polyA, respectively. After cutting from expression vector by restriction enzyme (EcoRI), transcription was performed by affecting SP6 RNA polymerase in the presence of cap analogues to obtain hnACh-R α4 cRNA and hnACh-R β2 cRNA, respectively.
(2) Expression of Human α4β2 Subtype Nicotinic Acetylcholine Receptors in Xenopus oocytes
Oocytes were purchased from Kitanihonseibutsukyohzai Co., Ltd., which were already enucleated from Xenopus laevis, and used in this experiment.
The oocytes were treated with collagenase (Sigma type I; 1 mg/ml) in calcium-free modified Birth's solution (88 mM of NaCl, 1 mM of KCl, 2.4 mM of NaHCO3, 0.82 mM of MgSO4, 15 mM of HEPES, pH 7.6) under gently stirring at room temperature for 90 minutes, and washed out the enzyme from the tissue. Then, oocytes were separated from ovarian follicle by tweezers, and isolated oocytes were placed in antibiotics containing modified Birth's solution (88 mM of NaCl, 1 mM of KCl, 2.4 mM of NaHCO3, 0.82 mM of MgSO4, 15 mM of HEPES, pH 7.6, and 0.1 v/v% of mixture solution containing of penicillin and streptomycin for incubation; Sigma Co.). […] In oocytes, heterogeneous quintuple [(α4)2(β2)3] was composed by translation of injected cRNAs, and ion channel receptors were constructed on cell membrane.
(3) Agonist Activities at Human α4β2 Subtype of Nicotinic Acetylcholine Receptors
Recordings of response at human α4β2 subtype of nicotinic acetylcholine receptors by means of membrane potential holding method were performed as follow. […] Test compounds were added to the perfusion solution, and recorded the peak strength of induced inward current. In order to normalize the response of test compounds, the response with acetylcholine (Ach) were recorded before and after application of the test compounds. Generally in the oocytes just after isolated, the response of intrinsic muscarinic acetylcholine receptors, which is inward electric current caused by activation of calcium dependence chloride ion channels with increase of the intracellular calcium concentration by stimulation of receptors, is observed. […] Therefore, the responses observed in oocytes with injection of hnACh-R α4 cRNA and hnACh-R β2 cRNA, i.e., the inward current induced by the intracellular influx of sodium ion according to the stimulation of receptors, would be the freshly observed responses of human α4β2 subtype nicotinic acetylcholine receptors.

T3 sequence (P43681 29-627 limits assumed): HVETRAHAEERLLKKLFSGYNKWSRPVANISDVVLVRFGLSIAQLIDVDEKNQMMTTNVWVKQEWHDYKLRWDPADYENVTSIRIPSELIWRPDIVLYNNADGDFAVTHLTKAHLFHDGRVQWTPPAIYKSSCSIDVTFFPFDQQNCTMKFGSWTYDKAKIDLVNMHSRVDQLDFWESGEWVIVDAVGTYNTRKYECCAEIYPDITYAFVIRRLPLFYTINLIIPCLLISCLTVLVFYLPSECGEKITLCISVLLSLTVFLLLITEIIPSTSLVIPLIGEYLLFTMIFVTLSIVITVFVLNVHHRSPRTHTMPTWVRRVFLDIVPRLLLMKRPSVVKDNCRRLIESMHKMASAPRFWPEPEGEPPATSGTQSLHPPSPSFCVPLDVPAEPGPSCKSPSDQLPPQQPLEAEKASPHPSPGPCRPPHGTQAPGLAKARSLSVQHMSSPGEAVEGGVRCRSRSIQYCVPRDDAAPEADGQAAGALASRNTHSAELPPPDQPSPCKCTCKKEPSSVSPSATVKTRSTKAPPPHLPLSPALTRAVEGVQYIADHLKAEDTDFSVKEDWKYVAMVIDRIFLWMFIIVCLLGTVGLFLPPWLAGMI
T3 sequence (P17787 26-502): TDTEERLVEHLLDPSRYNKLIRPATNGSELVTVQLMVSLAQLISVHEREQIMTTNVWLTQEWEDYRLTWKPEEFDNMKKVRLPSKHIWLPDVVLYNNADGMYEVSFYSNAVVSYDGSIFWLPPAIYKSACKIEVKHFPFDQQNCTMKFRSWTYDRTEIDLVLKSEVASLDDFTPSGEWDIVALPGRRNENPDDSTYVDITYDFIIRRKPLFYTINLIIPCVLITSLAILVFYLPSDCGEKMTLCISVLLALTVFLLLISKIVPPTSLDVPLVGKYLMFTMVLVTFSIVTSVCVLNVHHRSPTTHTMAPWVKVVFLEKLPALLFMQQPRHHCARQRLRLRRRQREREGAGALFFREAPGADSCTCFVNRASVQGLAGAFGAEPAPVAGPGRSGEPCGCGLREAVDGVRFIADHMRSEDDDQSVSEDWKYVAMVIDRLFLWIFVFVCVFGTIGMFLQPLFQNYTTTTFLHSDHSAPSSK
T2 sequence (P09483 31-630): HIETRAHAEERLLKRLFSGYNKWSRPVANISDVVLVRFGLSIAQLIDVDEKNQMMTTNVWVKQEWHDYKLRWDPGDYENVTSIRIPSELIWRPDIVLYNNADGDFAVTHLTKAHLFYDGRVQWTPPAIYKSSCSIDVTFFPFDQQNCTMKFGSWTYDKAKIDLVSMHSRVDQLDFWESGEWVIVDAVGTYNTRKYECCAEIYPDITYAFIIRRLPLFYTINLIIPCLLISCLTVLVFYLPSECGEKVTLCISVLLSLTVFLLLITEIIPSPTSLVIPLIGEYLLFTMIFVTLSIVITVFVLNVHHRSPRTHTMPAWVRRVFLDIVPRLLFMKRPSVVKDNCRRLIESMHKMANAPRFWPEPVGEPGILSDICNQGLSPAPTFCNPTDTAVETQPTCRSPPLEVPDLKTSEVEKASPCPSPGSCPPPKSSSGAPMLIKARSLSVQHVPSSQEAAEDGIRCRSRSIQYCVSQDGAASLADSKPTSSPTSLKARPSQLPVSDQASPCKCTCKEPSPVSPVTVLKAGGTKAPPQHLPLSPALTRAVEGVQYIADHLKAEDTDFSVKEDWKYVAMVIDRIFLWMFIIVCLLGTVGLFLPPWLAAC
T2 sequence (P12390 25-500): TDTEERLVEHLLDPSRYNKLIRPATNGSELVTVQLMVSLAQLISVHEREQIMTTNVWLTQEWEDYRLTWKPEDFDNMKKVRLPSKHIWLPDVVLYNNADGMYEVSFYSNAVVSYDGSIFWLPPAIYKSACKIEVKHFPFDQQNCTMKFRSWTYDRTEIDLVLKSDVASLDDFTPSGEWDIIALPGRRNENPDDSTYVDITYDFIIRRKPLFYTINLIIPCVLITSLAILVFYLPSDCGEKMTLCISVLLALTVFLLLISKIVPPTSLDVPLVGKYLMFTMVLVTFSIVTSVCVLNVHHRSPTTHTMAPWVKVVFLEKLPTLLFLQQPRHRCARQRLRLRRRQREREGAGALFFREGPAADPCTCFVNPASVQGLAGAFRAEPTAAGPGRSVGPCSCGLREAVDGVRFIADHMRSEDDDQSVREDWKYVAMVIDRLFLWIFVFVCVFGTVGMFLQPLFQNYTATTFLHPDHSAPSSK
T1 sequence (P25108 21-457): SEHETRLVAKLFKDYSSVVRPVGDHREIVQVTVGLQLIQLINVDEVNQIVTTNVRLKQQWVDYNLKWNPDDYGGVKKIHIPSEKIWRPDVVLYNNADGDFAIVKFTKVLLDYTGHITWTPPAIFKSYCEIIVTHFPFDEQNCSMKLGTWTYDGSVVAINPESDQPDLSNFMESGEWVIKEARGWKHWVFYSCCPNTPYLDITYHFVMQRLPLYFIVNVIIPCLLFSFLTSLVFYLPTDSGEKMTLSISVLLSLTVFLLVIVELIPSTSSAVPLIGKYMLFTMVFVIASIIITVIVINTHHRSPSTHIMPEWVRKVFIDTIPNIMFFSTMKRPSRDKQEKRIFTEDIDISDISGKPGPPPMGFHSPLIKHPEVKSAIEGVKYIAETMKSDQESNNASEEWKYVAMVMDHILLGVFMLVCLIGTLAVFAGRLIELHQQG
T1 sequence (P25110 22-517): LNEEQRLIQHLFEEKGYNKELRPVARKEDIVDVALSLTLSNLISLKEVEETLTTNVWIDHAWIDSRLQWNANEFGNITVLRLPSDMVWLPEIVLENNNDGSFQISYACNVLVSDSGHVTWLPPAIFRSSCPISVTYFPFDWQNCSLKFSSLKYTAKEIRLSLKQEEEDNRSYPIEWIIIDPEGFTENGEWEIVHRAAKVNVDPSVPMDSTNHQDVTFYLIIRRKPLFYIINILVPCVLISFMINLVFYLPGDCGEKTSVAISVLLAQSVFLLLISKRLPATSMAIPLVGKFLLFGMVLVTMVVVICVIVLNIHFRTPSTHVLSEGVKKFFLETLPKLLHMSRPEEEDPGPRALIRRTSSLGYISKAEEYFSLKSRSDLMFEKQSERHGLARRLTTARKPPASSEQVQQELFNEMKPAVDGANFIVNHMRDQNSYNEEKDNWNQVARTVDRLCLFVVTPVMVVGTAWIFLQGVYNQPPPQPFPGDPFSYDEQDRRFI
T1 sequence (P25109 24-501): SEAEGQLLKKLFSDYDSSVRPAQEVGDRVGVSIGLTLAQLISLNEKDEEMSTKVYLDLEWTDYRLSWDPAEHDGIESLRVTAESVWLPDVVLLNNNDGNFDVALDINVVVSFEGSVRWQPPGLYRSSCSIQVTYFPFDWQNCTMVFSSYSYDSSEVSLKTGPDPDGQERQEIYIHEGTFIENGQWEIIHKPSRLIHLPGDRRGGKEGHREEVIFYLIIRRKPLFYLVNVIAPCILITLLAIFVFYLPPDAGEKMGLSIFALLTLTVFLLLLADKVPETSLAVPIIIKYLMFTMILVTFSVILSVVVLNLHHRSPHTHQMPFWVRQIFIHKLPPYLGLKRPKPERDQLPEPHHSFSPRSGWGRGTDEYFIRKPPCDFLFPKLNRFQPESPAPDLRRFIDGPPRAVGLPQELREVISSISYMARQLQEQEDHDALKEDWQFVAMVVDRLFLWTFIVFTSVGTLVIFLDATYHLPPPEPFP

SMILES	Ki [1]	Ki [2]	Emax at 100 µM [3]	remaining activity at 100 µM [1]	remaining activity at 1000 µM [1]	EC50 [3]
Cc1ccc(Cn2ccnc2N)cn1 [Compound 56, 2-amino-i-(6-methyl-3-pyridyl)methylimidazole]	545 µM	165 nM	11%			
N=C1OCCCN1Cc1ccc(Cl)nc1 [Compound 16, 3-(6-chloro-3-pyridyl)methyl-2-imino-3,4,5,6-tetrahydro-2H-1,3-oxazine]		0.65 nM		14%	-2%	1.5 µM
N=C1OCCN1Cc1ccc(Cl)nc1 [Compound 28, 3-(6-chloro-3-pyridyl)methyl-2-iminooxazolidine]	39.8 µM	2.77 nM				15.5 µM
N=c1sccn1Cc1ccc([N+](=O)[O-])cc1 [Compound 62, 2-imino-3-(4-nitrobenzyl)-2,3-dihydrothiazole]	79.8 µM	29.1 nM				325 µM
Cc1csc(=N)n1Cc1ccc(Br)nc1 [Compound 19, 3-(6-bromo-3-pyridyl)methyl-2-imino-4-methyl-2,3-dihydrothiazole]	11.7 µM	10.5 nM	3%			
N=c1ccc(Cl)nn1Cc1ccc(Cl)nc1 [Compound 6, 6-chloro-2-(6-chloro-3-pyridyl)methyl-3-imino-2,3-dihydropyridazine]		15 nM		44%	15%	86 µM
N=c1sccn1Cc1ccc(Cl)cc1 [Compound 57, 3-(4-chlorobenzyl)-2-imino-2,3-dihydrothiazole]	13 µM	11.9 nM	23%			
NC1=NCCCN1Cc1ccc(Cl)nc1 [Compound 29, 1-(6-Chloro-3-pyridyl)methyl-2-imino-1,2,3,4,5,6-hexahydropyrimidine]	7.02 µM	0.25 nM				0.5 µM
Nc1nccn1Cc1cnc(Cl)s1 [Compound 50, 2-amino-1-(2-chloro-5-thiazolyl)methylimidazole]	818 µM	27.1 nM				92.4 µM
